{
  "source": "patent US20230150932A1",
  "about": "“COMPOSITIONS FOR STABILIZING AN ISOTHIOCYANATE” (VIO CHEMICALS AG, priority 2020, published 2023)",
  "key": {"[1]": {"experiment": "Stability study by HPLC, storage under Conditions A (bench, 20-25° C.)", "type": "physicochemical", "conditions": "Conditions A 20-25° C.; for RRT 0.96: impurity; for RRT 0.76: thiourea degradation impurity", "protocol": "(§1) The storage conditions studied in the present invention are of three types:\n(§2) In all three above types of conditions, the storage media is a simple dark glass vial or round-bottomed flask. Each sample is blown with Argon before securing the cap. No further treatment regarding the atmosphere is performed. The vial is capped and secured by use of a commercially available appropriate means for sealing the cap, e.g. Parafilm. The storage media is not restrictive with respect to the present invention.\n(§3) The Sulforaphane formulations were analyzed with HPLC (PDA/UV at 240 nm) using standards for identification and quantification purpose.\n(§4) Take 1 mL of H3PO4 into a 1 L volumetric flask containing about 500 mL of water, dilute to the volume with water and mix well/Acetonitrile.\n(§5) Transfer accurately about 20 mg of sample in to a 20 mL clean and dry volumetric flask. Dilute to the volume with diluent.\n(§6) Sulphoraphane retention time is about 20 mins\n(§7) Conditions A: bench (20-25° C.) Conditions B: fridge, 2-8° C. Conditions C: fridge-freezer, (−15) ° C."}, "[2]": {"experiment": "Stability study by HPLC, storage under Conditions C (fridge-freezer, -15° C.)", "type": "physicochemical", "conditions": "Conditions C -15° C.; for RRT 0.96: impurity; for RRT 0.76: thiourea degradation impurity", "protocol": "as §1, §2, §3, §4, §5, §6, §7"}, "[3]": {"conditions": "left on bench for 6 months; HPLC", "text": "In order to determine the structure of the major degradation impurity found in the present study (RRT 0.76) a sample of synthetically produced Sulforaphane was left on bench for 6 months."}, "[4]": {"conditions": "diluted in water, heated at 80° C. for 24 hrs; HPLC"}},
  "data": [
    {"smiles": "C[S+]([O-])CCCCN=C=S", "note": "(stereo not drawn) [Comparative Example 3, 4-(methylsulfinyl)butylisothiocyanate]", "values": [
      {"measurement": "Sulfone", "setting": "[1]; 1 month", "value": 1.31},
      {"measurement": "Sulforaphane", "setting": "[1]; 1 month", "value": 36.35},
      {"measurement": "RRT 0.96", "setting": "[1]; 1 month", "value": 3.88},
      {"measurement": "RRT 0.76", "setting": "[1]; 1 month", "value": 29.16},
      {"measurement": "Sulfone", "setting": "[1]; 2 months", "value": 0.84},
      {"measurement": "Sulforaphane", "setting": "[1]; 2 months", "value": 24.51},
      {"measurement": "RRT 0.96", "setting": "[1]; 2 months", "value": 3.95},
      {"measurement": "RRT 0.76", "setting": "[1]; 2 months", "value": 34.37},
      {"measurement": "Sulfone", "setting": "[1]; 3 months", "value": 0.78},
      {"measurement": "Sulforaphane", "setting": "[1]; 3 months", "value": 19.98},
      {"measurement": "RRT 0.96", "setting": "[1]; 3 months", "value": 4.11},
      {"measurement": "RRT 0.76", "setting": "[1]; 3 months", "value": 38.38},
      {"measurement": "Sulfone", "setting": "[1]; 7 days", "value": 2.32},
      {"measurement": "Sulforaphane", "setting": "[1]; 7 days", "value": 65.48},
      {"measurement": "RRT 0.96", "setting": "[1]; 7 days", "value": 2.62},
      {"measurement": "RRT 0.76", "setting": "[1]; 7 days", "value": 15.87},
      {"measurement": "Sulfone", "setting": "[1]; 15 days", "value": 1.92},
      {"measurement": "Sulforaphane", "setting": "[1]; 15 days", "value": 53.28},
      {"measurement": "RRT 0.96", "setting": "[1]; 15 days", "value": 3.20},
      {"measurement": "RRT 0.76", "setting": "[1]; 15 days", "value": 21.61},
      {"measurement": "Sulfone", "setting": "[1]; zero time", "value": 3.40},
      {"measurement": "Sulforaphane", "setting": "[1]; zero time", "value": 94.74},
      {"measurement": "RRT 0.96", "setting": "[1]; zero time", "value": 0.15},
      {"measurement": "RRT 0.76", "setting": "[1]; zero time", "value": 0.01},
      {"measurement": "Sulfone", "setting": "[2]; 1 month", "value": 3.4},
      {"measurement": "Sulforaphane", "setting": "[2]; 1 month", "value": 94.27},
      {"measurement": "RRT 0.96", "setting": "[2]; 1 month", "value": 0.23},
      {"measurement": "RRT 0.76", "setting": "[2]; 1 month", "value": 0.25},
      {"measurement": "Sulfone", "setting": "[2]; 2 months", "value": 3.42},
      {"measurement": "Sulforaphane", "setting": "[2]; 2 months", "value": 94.43},
      {"measurement": "RRT 0.96", "setting": "[2]; 2 months", "value": 0.25},
      {"measurement": "RRT 0.76", "setting": "[2]; 2 months", "value": 0.27},
      {"measurement": "Sulfone", "setting": "[2]; 3 months", "value": 3.44},
      {"measurement": "Sulforaphane", "setting": "[2]; 3 months", "value": 94.51},
      {"measurement": "RRT 0.96", "setting": "[2]; 3 months", "value": 0.51},
      {"measurement": "RRT 0.76", "setting": "[2]; 3 months", "value": 0.23},
      {"measurement": "Sulfone", "setting": "[2]; 7 days", "value": 3.38},
      {"measurement": "Sulforaphane", "setting": "[2]; 7 days", "value": 95.21},
      {"measurement": "RRT 0.96", "setting": "[2]; 7 days", "value": 0.15},
      {"measurement": "Sulforaphane", "setting": "[2]; 15 days", "value": 97.23},
      {"measurement": "RRT 0.96", "setting": "[2]; 15 days", "value": 0.03},
      {"measurement": "RRT 0.76", "setting": "[2]; 15 days", "value": 0.62},
      {"measurement": "Sulfone", "setting": "[2]; zero time", "value": 3.40},
      {"measurement": "Sulforaphane", "setting": "[2]; zero time", "value": 94.74},
      {"measurement": "RRT 0.96", "setting": "[2]; zero time", "value": 0.15},
      {"measurement": "RRT 0.76", "setting": "[2]; zero time", "value": 0.01},
      {"measurement": "percentage of impurity RRT 0.76", "setting": "[3]", "value": "about 74.8%"},
      {"measurement": "impurity RRT 0.76 detected (chromatographic purity)", "setting": "[4]", "value": "more than 93%"}
    ]}
  ]
}
